From ChEMBL document CHEMBL1201862, “PubChem BioAssay data set” (2004)
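Grown in 96-well plates, cells were treated for 48 hours with each compound at five concentrations. Insufficient inhibition: endpoint recorded as highest concentration tested. GI50 = concentration required for 50% inhibition of growth.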 The source made the active and inactive calls. Cut-off read from the data, not from the text of the source: active = GI50 up to about 1.1 µM and inactive = higher.

Assays:
Assay in all cases: growth of human tumour cells (NCI), 48 h
HCT-116 = tested on: HCT-116
SNB-19 = tested on: SNB-19
SK-MEL-28 = tested on: SK-MEL-28
OVCAR-3 = tested on: OVCAR-3
KM12 = tested on: KM12
TK-10 = tested on: TK-10
LOX IMVI = tested on: LOX IMVI
Malme-3M = tested on: Malme-3M
CCRF-CEM = tested on: CCRF-CEM
UACC-62 = tested on: UACC-62
SF-268 = tested on: SF-268
SW-620 = tested on: SW-620
SK-MEL-5 = tested on: SK-MEL-5
COLO 205 = tested on: COLO 205
U-251 = tested on: U-251
NCI-H23 = tested on: NCI-H23
A549 = tested on: A549
NCI-H226 = tested on: NCI-H226

Row | Structure (SMILES) | GI50 (HCT-116) | GI50 (SNB-19) | GI50 (SK-MEL-28) | GI50 (OVCAR-3) | GI50 (KM12) | GI50 (TK-10) | GI50 (LOX IMVI) | GI50 (Malme-3M) | GI50 (CCRF-CEM) | GI50 (UACC-62) | GI50 (SF-268) | GI50 (SW-620) | GI50 (SK-MEL-5) | GI50 (COLO 205) | GI50 (U-251) | GI50 (NCI-H23) | GI50 (A549) | GI50 (NCI-H226)
1 | COC(=O)[C@H]1CC(=O)C=C2CCCC21 (some centres undefined) | > 100 µM (inactive) | > 100 µM (inactive) | > 100 µM (inactive) | > 100 µM (inactive) | > 100 µM (inactive) | > 100 µM (inactive) | > 100 µM (inactive) | > 100 µM (inactive) | > 100 µM (inactive) | > 100 µM (inactive) | > 100 µM (inactive) | > 100 µM (inactive) | > 100 µM (inactive) | > 100 µM (inactive) | > 100 µM (inactive) | > 100 µM (inactive) | > 100 µM (inactive) | –
2 | O=C(N/N=C1/C(=O)N(c2ccc(Cl)cc2Cl)C(=O)C(=O)C1c1nc2ccccc2o1)c1ccccc1O (centres undefined) | 37.2 µM (inactive) | 49.7 µM (inactive) | 29.6 µM (inactive) | 21.8 µM (inactive) | 42.4 µM (inactive) | 38.9 µM (inactive) | – | 27.3 µM (inactive) | 47.6 µM (inactive) | 20.4 µM (inactive) | 41.2 µM (inactive) | 47.9 µM (inactive) | 19 µM (inactive) | 52.7 µM (inactive) | > 10 µM (inactive) | 25.7 µM (inactive) | 33 µM (inactive) | > 100 µM (inactive)
3 | C1=NN(Cc2ccccc2)C(N(Cc2ccccc2)Cc2ccccc2)N1 (centres undefined) | 9.31 µM (inactive) | 20.9 µM (inactive) | 19 µM (inactive) | 14 µM (inactive) | 16.3 µM (inactive) | 29.3 µM (inactive) | 15.3 µM (inactive) | 12.2 µM (inactive) | 12.2 µM (inactive) | 14 µM (inactive) | 21.3 µM (inactive) | 20.6 µM (inactive) | 14.2 µM (inactive) | 16.9 µM (inactive) | 16.7 µM (inactive) | 16.9 µM (inactive) | 16.3 µM (inactive) | 18.5 µM (inactive)
4 | C=CCC1(C)CCCCC1(O)C[S+]([O-])c1ccccc1 (centres undefined) | > 100 µM (inactive) | > 100 µM (inactive) | > 100 µM (inactive) | > 100 µM (inactive) | > 100 µM (inactive) | > 100 µM (inactive) | > 100 µM (inactive) | > 100 µM (inactive) | > 100 µM (inactive) | > 100 µM (inactive) | > 100 µM (inactive) | > 100 µM (inactive) | > 100 µM (inactive) | > 100 µM (inactive) | > 100 µM (inactive) | – | > 100 µM (inactive) | 20.9 µM (inactive)
5 | COC(=O)C1(C)C=C(Nc2ccccc2)C(=O)N1c1ccccc1 (centres undefined) | > 100 µM (inactive) | > 100 µM (inactive) | > 100 µM (inactive) | > 100 µM (inactive) | > 100 µM (inactive) | > 100 µM (inactive) | > 100 µM (inactive) | > 100 µM (inactive) | > 100 µM (inactive) | 99.5 µM (inactive) | > 100 µM (inactive) | > 100 µM (inactive) | > 100 µM (inactive) | – | > 100 µM (inactive) | > 100 µM (inactive) | > 100 µM (inactive) | > 100 µM (inactive)
6 | O=C1C[C@@H]2C(COC(=O)c3ccccc3)N(OCc3ccccc3)C[C@@H]2O1 (some centres undefined) | > 100 µM (inactive) | > 100 µM (inactive) | > 100 µM (inactive) | > 100 µM (inactive) | > 100 µM (inactive) | > 100 µM (inactive) | > 100 µM (inactive) | > 100 µM (inactive) | > 100 µM (inactive) | > 100 µM (inactive) | > 100 µM (inactive) | > 100 µM (inactive) | > 100 µM (inactive) | > 100 µM (inactive) | > 100 µM (inactive) | > 100 µM (inactive) | > 100 µM (inactive) | > 100 µM (inactive)
7 | O=[N+]([O-])c1cccc(Nc2nc(Cl)nc(Cl)n2)c1 | > 100 µM (inactive) | > 100 µM (inactive) | > 100 µM (inactive) | > 100 µM (inactive) | > 100 µM (inactive) | – | > 100 µM (inactive) | > 100 µM (inactive) | > 100 µM (inactive) | > 100 µM (inactive) | > 100 µM (inactive) | > 100 µM (inactive) | > 100 µM (inactive) | > 100 µM (inactive) | > 100 µM (inactive) | > 100 µM (inactive) | > 100 µM (inactive) | > 100 µM (inactive)
8 | O=C(NC1CCCCC1)NS(=O)(=O)c1ccc2c(c1)CCC2 [GLYHEXAMIDE] | – | > 100 µM (inactive) | > 100 µM (inactive) | > 100 µM (inactive) | > 100 µM (inactive) | > 100 µM (inactive) | > 100 µM (inactive) | > 100 µM (inactive) | > 100 µM (inactive) | > 100 µM (inactive) | > 100 µM (inactive) | > 100 µM (inactive) | – | > 100 µM (inactive) | > 100 µM (inactive) | > 100 µM (inactive) | > 100 µM (inactive) | > 100 µM (inactive)
9 | N#CCCN(CCC#N)c1ccc(/C=N\c2nc(-c3ccccc3)cs2)cc1 | > 100 µM (inactive) | > 100 µM (inactive) | > 100 µM (inactive) | > 100 µM (inactive) | – | 81.7 µM (inactive) | > 100 µM (inactive) | > 100 µM (inactive) | – | > 100 µM (inactive) | > 100 µM (inactive) | > 100 µM (inactive) | > 100 µM (inactive) | > 100 µM (inactive) | – | > 100 µM (inactive) | > 100 µM (inactive) | > 100 µM (inactive)
10 | Oc1ccc2c(c1)CC[N+]1=C2CCC2CCCC21 (centres undefined) [QUINDONIUM BROMIDE] | > 100 µM (inactive) | > 100 µM (inactive) | > 100 µM (inactive) | > 100 µM (inactive) | – | > 100 µM (inactive) | > 100 µM (inactive) | – | – | > 100 µM (inactive) | > 100 µM (inactive) | > 100 µM (inactive) | > 100 µM (inactive) | > 100 µM (inactive) | – | > 100 µM (inactive) | > 100 µM (inactive) | > 100 µM (inactive)
11 | O=S(=O)(O)SC/C=C\CSS(=O)(=O)O | > 100 µM (inactive) | > 100 µM (inactive) | > 100 µM (inactive) | > 100 µM (inactive) | > 100 µM (inactive) | > 100 µM (inactive) | 29.4 µM (inactive) | > 100 µM (inactive) | – | > 100 µM (inactive) | > 100 µM (inactive) | > 100 µM (inactive) | > 100 µM (inactive) | > 100 µM (inactive) | 61.2 µM (inactive) | > 100 µM (inactive) | > 100 µM (inactive) | > 100 µM (inactive)
12 | O=c1/c(=C/c2ccc3c(c2)OCO3)sc2nnc(Cc3ccccc3)n12 | > 100 µM (inactive) | > 100 µM (inactive) | > 100 µM (inactive) | > 100 µM (inactive) | > 100 µM (inactive) | > 100 µM (inactive) | > 100 µM (inactive) | > 100 µM (inactive) | 81.5 µM (inactive) | > 100 µM (inactive) | > 100 µM (inactive) | > 100 µM (inactive) | > 100 µM (inactive) | > 100 µM (inactive) | > 100 µM (inactive) | > 100 µM (inactive) | > 100 µM (inactive) | > 100 µM (inactive)
13 | CCOc1ccc(N2C(=O)C3c4[nH]c5ccccc5c4C4CCC(C(C)(C)C)CC4C3C2=O)cc1 (centres undefined) | 49.2 µM (inactive) | > 100 µM (inactive) | > 100 µM (inactive) | – | – | – | – | > 100 µM (inactive) | 10.3 µM (inactive) | > 100 µM (inactive) | > 100 µM (inactive) | > 100 µM (inactive) | > 100 µM (inactive) | 36.1 µM (inactive) | > 100 µM (inactive) | 82.8 µM (inactive) | 62.4 µM (inactive) | 56.5 µM (inactive)
14 | O=c1ccc2ccc(O)c3c4c(O)ccc5ccc(=O)c(c1c23)c54 | 1.43 µM (inactive) | 2.18 µM (inactive) | 1.14 µM (inactive) | 0.964 µM (active) | 1.24 µM (inactive) | 2.67 µM (inactive) | 1.18 µM (inactive) | 0.371 µM (active) | 0.71 µM (active) | 0.382 µM (active) | – | 2.07 µM (inactive) | 1.14 µM (inactive) | 1.91 µM (inactive) | 1.29 µM (inactive) | 1.66 µM (inactive) | 2.95 µM (inactive) | 2.04 µM (inactive)
15 | C=C[C@@H](C)[C@]1(C(=O)OC)CCCC12OCCO2 | > 100 µM (inactive) | > 100 µM (inactive) | > 100 µM (inactive) | > 100 µM (inactive) | > 100 µM (inactive) | > 100 µM (inactive) | > 100 µM (inactive) | > 100 µM (inactive) | > 100 µM (inactive) | > 100 µM (inactive) | > 100 µM (inactive) | – | > 100 µM (inactive) | > 100 µM (inactive) | > 100 µM (inactive) | – | > 100 µM (inactive) | > 100 µM (inactive)
16 | CCOc1ccc(NC(=O)CC2SC(Nc3ccc(Cl)cc3)=NC2=O)cc1 (centres undefined) | – | > 100 µM (inactive) | > 100 µM (inactive) | > 100 µM (inactive) | > 100 µM (inactive) | > 100 µM (inactive) | > 100 µM (inactive) | > 100 µM (inactive) | 18.3 µM (inactive) | > 100 µM (inactive) | > 100 µM (inactive) | 98.9 µM (inactive) | > 100 µM (inactive) | > 100 µM (inactive) | – | > 100 µM (inactive) | > 100 µM (inactive) | > 100 µM (inactive)
